Data as given in US8192962B2, “Processes for detecting toxic substances” (Daikin Industries, Ltd., priority 2001, dated 2012).

System: Genes belonging to other category
Experiment: DNA chip mRNA expression in yeast, genes belonging to other category (Table 9)
Format: cell-based, Saccharomyces cerevisiae S288C
Procedure, shortened: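 Chemical exposure: 2 h, log-phase S. cerevisiae S288C, YPD, 25° C., dose set to inhibit growth without death. Profiling: mRNA labeled by reverse transcription with Cy3- or Cy5-dUTP, hybridized to whole-genome array. Output: fluorescence ratio against untreated culture.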

[Cl][Pb][Cl] [(4), PbCl2]
The level of expressed mRNA in the presence of chemical substance/The level of expressed mRNA in the absence of chemical substance (yeast gene YAR010C): 0.8
The level of expressed mRNA in the presence of chemical substance/The level of expressed mRNA in the absence of chemical substance (yeast gene YBL005W-A): 0.9
The level of expressed mRNA in the presence of chemical substance/The level of expressed mRNA in the absence of chemical substance (yeast gene YBL041W): 1.0
The level of expressed mRNA in the presence of chemical substance/The level of expressed mRNA in the absence of chemical substance (yeast gene YBL043W): 1.3
The level of expressed mRNA in the presence of chemical substance/The level of expressed mRNA in the absence of chemical substance (yeast gene YBL078C): 2.6
The level of expressed mRNA in the presence of chemical substance/The level of expressed mRNA in the absence of chemical substance (yeast gene YBR214W): 2.0
The level of expressed mRNA in the presence of chemical substance/The level of expressed mRNA in the absence of chemical substance (yeast gene YCL020W): 1.1
The level of expressed mRNA in the presence of chemical substance/The level of expressed mRNA in the absence of chemical substance (yeast gene YCL027W): 1.0
The level of expressed mRNA in the presence of chemical substance/The level of expressed mRNA in the absence of chemical substance (yeast gene YCR071C): 0.8
The level of expressed mRNA in the presence of chemical substance/The level of expressed mRNA in the absence of chemical substance (yeast gene YCR088W): 0.9
The level of expressed mRNA in the presence of chemical substance/The level of expressed mRNA in the absence of chemical substance (yeast gene YDL008W): 1.1
The level of expressed mRNA in the presence of chemical substance/The level of expressed mRNA in the absence of chemical substance (yeast gene YDL238C): 1.7
The level of expressed mRNA in the presence of chemical substance/The level of expressed mRNA in the absence of chemical substance (yeast gene YDR055W): 2.8
The level of expressed mRNA in the presence of chemical substance/The level of expressed mRNA in the absence of chemical substance (yeast gene YDR084C): 1.1
The level of expressed mRNA in the presence of chemical substance/The level of expressed mRNA in the absence of chemical substance (yeast gene YDR085C): 3.4
The level of expressed mRNA in the presence of chemical substance/The level of expressed mRNA in the absence of chemical substance (yeast gene YDR104C): 1.2
The level of expressed mRNA in the presence of chemical substance/The level of expressed mRNA in the absence of chemical substance (yeast gene YDR115W): 1.5
The level of expressed mRNA in the presence of chemical substance/The level of expressed mRNA in the absence of chemical substance (yeast gene YDR259C): 1.4
The level of expressed mRNA in the presence of chemical substance/The level of expressed mRNA in the absence of chemical substance (yeast gene YDR315C): 1.3
The level of expressed mRNA in the presence of chemical substance/The level of expressed mRNA in the absence of chemical substance (yeast gene YDR358W): 1.1
The level of expressed mRNA in the presence of chemical substance/The level of expressed mRNA in the absence of chemical substance (yeast gene YDR388W): 1.0
The level of expressed mRNA in the presence of chemical substance/The level of expressed mRNA in the absence of chemical substance (yeast gene YDR432W): 1.4
The level of expressed mRNA in the presence of chemical substance/The level of expressed mRNA in the absence of chemical substance (yeast gene YDR481C): 0.7
The level of expressed mRNA in the presence of chemical substance/The level of expressed mRNA in the absence of chemical substance (yeast gene YDR510W): 1.3
The level of expressed mRNA in the presence of chemical substance/The level of expressed mRNA in the absence of chemical substance (yeast gene YEL042W): 0.9
The level of expressed mRNA in the presence of chemical substance/The level of expressed mRNA in the absence of chemical substance (yeast gene YEL066W): 2.2
The level of expressed mRNA in the presence of chemical substance/The level of expressed mRNA in the absence of chemical substance (yeast gene YER039C): 4.1
The level of expressed mRNA in the presence of chemical substance/The level of expressed mRNA in the absence of chemical substance (yeast gene YER107C): 0.6
The level of expressed mRNA in the presence of chemical substance/The level of expressed mRNA in the absence of chemical substance (yeast gene YER130C): 0.8
The level of expressed mRNA in the presence of chemical substance/The level of expressed mRNA in the absence of chemical substance (yeast gene YFL022C): 0.6
The level of expressed mRNA in the presence of chemical substance/The level of expressed mRNA in the absence of chemical substance (yeast gene YFL028C): 1.5
The level of expressed mRNA in the presence of chemical substance/The level of expressed mRNA in the absence of chemical substance (yeast gene YFL043C): 1.2
The level of expressed mRNA in the presence of chemical substance/The level of expressed mRNA in the absence of chemical substance (yeast gene YGL158W): 12.9
The level of expressed mRNA in the presence of chemical substance/The level of expressed mRNA in the absence of chemical substance (yeast gene YGL229C): 0.8
The level of expressed mRNA in the presence of chemical substance/The level of expressed mRNA in the absence of chemical substance (yeast gene YGR136W): 0.7
The level of expressed mRNA in the presence of chemical substance/The level of expressed mRNA in the absence of chemical substance (yeast gene YGR189C): 3.5
The level of expressed mRNA in the presence of chemical substance/The level of expressed mRNA in the absence of chemical substance (yeast gene YGR213C): 6.8
The level of expressed mRNA in the presence of chemical substance/The level of expressed mRNA in the absence of chemical substance (yeast gene YGR257C): 1.1
The level of expressed mRNA in the presence of chemical substance/The level of expressed mRNA in the absence of chemical substance (yeast gene YHR004C): 1.1
The level of expressed mRNA in the presence of chemical substance/The level of expressed mRNA in the absence of chemical substance (yeast gene YHR071W): 1.6
The level of expressed mRNA in the presence of chemical substance/The level of expressed mRNA in the absence of chemical substance (yeast gene YHR139C): 9.3
The level of expressed mRNA in the presence of chemical substance/The level of expressed mRNA in the absence of chemical substance (yeast gene YHR142W): 0.8
The level of expressed mRNA in the presence of chemical substance/The level of expressed mRNA in the absence of chemical substance (yeast gene YIL123W): 1.5
The level of expressed mRNA in the presence of chemical substance/The level of expressed mRNA in the absence of chemical substance (yeast gene YIL140W): 1.4
The level of expressed mRNA in the presence of chemical substance/The level of expressed mRNA in the absence of chemical substance (yeast gene YJL073W): 0.7
The level of expressed mRNA in the presence of chemical substance/The level of expressed mRNA in the absence of chemical substance (yeast gene YJL089W): 0.8
The level of expressed mRNA in the presence of chemical substance/The level of expressed mRNA in the absence of chemical substance (yeast gene YJL116C): 1.9
The level of expressed mRNA in the presence of chemical substance/The level of expressed mRNA in the absence of chemical substance (yeast gene YJR004C): 0.6
The level of expressed mRNA in the presence of chemical substance/The level of expressed mRNA in the absence of chemical substance (yeast gene YJR086W): 1.4
The level of expressed mRNA in the presence of chemical substance/The level of expressed mRNA in the absence of chemical substance (yeast gene YKL008C): 0.8
